What is called IC50 is the concentration at which inhibition is half-maximal.

In assay [1] the target is T1, HDAC6 human recombinant (Homo sapiens, UniProt Q9UBN7).
T1 construct: purchased Calbiochem 382180
T1 sequence (Q9UBN7 1-1215): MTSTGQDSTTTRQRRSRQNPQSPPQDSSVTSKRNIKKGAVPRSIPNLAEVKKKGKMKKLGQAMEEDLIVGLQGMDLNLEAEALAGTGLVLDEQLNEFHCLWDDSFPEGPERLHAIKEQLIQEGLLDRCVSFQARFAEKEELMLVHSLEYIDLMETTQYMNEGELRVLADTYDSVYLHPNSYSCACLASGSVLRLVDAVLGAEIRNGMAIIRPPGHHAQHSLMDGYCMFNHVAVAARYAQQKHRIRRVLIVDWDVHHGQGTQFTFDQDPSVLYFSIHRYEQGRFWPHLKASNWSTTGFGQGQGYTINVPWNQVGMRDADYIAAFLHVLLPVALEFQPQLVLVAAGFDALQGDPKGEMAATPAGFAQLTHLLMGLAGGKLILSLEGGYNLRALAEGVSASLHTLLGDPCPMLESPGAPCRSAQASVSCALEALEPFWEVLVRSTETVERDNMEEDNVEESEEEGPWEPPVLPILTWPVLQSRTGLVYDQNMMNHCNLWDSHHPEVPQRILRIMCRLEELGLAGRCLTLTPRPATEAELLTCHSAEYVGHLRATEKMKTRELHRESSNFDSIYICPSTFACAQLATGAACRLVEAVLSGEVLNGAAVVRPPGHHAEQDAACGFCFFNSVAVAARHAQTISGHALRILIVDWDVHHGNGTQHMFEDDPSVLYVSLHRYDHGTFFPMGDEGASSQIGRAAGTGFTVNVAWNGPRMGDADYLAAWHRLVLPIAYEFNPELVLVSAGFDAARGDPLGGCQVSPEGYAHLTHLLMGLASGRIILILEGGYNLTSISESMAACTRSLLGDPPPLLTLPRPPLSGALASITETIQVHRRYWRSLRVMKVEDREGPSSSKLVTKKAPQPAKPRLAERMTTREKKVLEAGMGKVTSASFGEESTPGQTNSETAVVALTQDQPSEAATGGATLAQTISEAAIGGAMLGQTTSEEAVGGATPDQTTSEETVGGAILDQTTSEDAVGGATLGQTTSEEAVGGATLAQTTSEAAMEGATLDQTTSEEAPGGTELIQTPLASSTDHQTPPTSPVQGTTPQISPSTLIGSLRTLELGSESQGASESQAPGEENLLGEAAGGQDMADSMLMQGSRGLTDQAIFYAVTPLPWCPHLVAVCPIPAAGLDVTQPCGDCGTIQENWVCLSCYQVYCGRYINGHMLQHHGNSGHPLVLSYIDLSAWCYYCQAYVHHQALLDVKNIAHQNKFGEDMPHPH
Kind of assay: HDAC enzyme activity inhibition (in vitro), HDAC6 assay. It is filed as biochemical. To be noted: samples at 0.1, 1, 10, 100 and 1000 nM; 37° C. 60 minutes; fluorescence Ex 390, Em 460; read-out: HDAC6 IC50. The procedure, abridged:
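HDAC6 human recombinant enzyme with fluorimetric substrate; […]. Reaction 60 min at 37° C, then developer 30 min at 37° C; fluorescence read at Ex 390/Em 460.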

The target of assay [2] is T2, HDAC1 (Homo sapiens, UniProt Q13547).
T2 construct: purchased Enzolifesciences BML-AK511
T2 sequence (Q13547 whole entry): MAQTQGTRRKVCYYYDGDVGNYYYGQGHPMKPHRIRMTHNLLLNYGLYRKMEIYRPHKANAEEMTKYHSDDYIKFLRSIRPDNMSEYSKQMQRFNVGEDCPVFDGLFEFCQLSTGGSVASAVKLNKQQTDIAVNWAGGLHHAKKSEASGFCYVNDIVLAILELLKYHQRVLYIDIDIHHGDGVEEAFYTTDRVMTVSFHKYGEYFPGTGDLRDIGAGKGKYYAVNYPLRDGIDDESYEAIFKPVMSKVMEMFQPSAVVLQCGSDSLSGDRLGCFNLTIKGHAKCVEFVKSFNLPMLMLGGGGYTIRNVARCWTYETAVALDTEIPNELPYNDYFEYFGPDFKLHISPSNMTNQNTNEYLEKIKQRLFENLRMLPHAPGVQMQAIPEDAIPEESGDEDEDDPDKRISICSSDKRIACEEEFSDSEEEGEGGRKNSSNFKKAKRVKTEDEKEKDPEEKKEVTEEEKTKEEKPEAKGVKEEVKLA
Kind of assay: HDAC enzyme activity inhibition (in vitro), HDAC1 Fluorimetric Drug Discovery Assay Kit. It is filed as biochemical. To be noted: samples at 100, 1000 and 10000 nM; 37° C. 60 minutes; fluorescence Ex 390, Em 460; read-out: HDAC1 IC50. The procedure, abridged:
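HDAC1 was tested at 100, 1000 and 10000 nM and recombinant human HDAC6 at 0.1, 1, 10, 100 and 1000 nM. Enzyme reactions ran 60 min at 37° C, then developer was added for 30 min at 37° C, and fluorescence (Ex 390, Em 460) was read.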

As to `CC(C)N1CCC(n2c(=O)n(Cc3ccc(-c4nnc(C(F)F)o4)cc3F)c3cc(F)ccc32)CC1` [Compound 70, 3-(4-(5-(difluoromethyl)-1,3,4-oxadiazole-2-yl)-2-fluorobenzyl)-5-fluoro-1-(1-isopropylpiperidine-4-yl)-1,3-dihydro-2H-benzo[d]imidazole-2-one], the half-inhibitory concentration (IC50) in assay [1] is 31 nM; in assay [2], more than 10000 nM.

Consider `O=c1n(Cc2ccc(-c3nnc(C(F)F)o3)cc2F)c2cc(F)ccc2n1C1CCN(C2COC2)CC1` [Compound 71, 3-(4-(5-(difluoromethyl)-1,3,4-oxadiazole-2-yl)-2-fluorobenzyl)-5-fluoro-1-(1-(oxetan-3-yl)piperidine-4-yl)-1,3-dihydro-2H-benzo[d]imidazole-2-one], for which the results for the IC50 in assay [1] and in assay [2] were 19 nM and more than 10000 nM, respectively.

In the case of `O=c1n(Cc2ccc(-c3nnc(C(F)F)o3)cc2F)c2cc(F)ccc2n1C1CCN(C2CCOCC2)CC1` [Compound 72, 3-(4-(5-(difluoromethyl)-1,3,4-oxadiazole-2-yl)-2-fluorobenzyl)-5-fluoro-1-(1-(tetrahydro-2H-pyran-4-yl)piperidine-4-yl)-1,3-dihydro-2H-benzo[d]imidazole-2-one], the results for the IC50 in assay [1] and in assay [2] were 26 nM and more than 10000 nM, respectively.

Regarding `O=c1n(Cc2ccc(-c3nnc(C(F)F)o3)cc2F)c2cc(F)ccc2n1C1CCN(C2CCSCC2)CC1` [Compound 73, 3-(4-(5-(difluoromethyl)-1,3,4-oxadiazole-2-yl)-2-fluorobenzyl)-5-fluoro-1-(1-(tetrahydro-2H-thiopyran-4-yl)piperidine-4-yl)-1,3-dihydro-2H-benzo[d]imidazole-2-one], the concentration for half-maximal inhibition (IC50) is 80 nM in assay [1] and more than 10000 nM in assay [2].

Turning to `O=c1n(Cc2ccc(-c3nnc(C(F)F)o3)cc2F)c2cc(F)ccc2n1C1CCN(C2CCC2)CC1` [Compound 74, 1-(1-cyclobutylpiperidine-4-yl)-3-(4-(5-(difluoromethyl)-1,3,4-oxadiazole-2-yl)-2-fluorobenzyl)-5-fluoro-1,3-dihydro-2H-benzo[d]imidazole-2-one], the results for the 50% inhibitory concentration (IC50) in assay [1] and in assay [2] were 70 nM and more than 10000 nM, respectively.

`CC(=O)N1CCC(n2c(=O)n(Cc3ccc(-c4nnc(C(F)F)o4)cc3F)c3cc(F)ccc32)CC1` [Compound 75]: the IC50 in assay [1] is 46 nM; in assay [2] it was more than 10000 nM.

Turning to `CN1CCC(n2c(=O)n(Cc3ccc(-c4nnc(C(F)F)o4)cn3)c3c(F)cccc32)CC1` [Compound 76, 3-((5-(5-(difluoromethyl)-1,3,4-oxadiazole-2-yl)pyridine-2-yl)methyl)-4-fluoro-1-(1-methylpiperidine-4-yl)-1,3-dihydro-2H-benzo[d]imidazole-2-one], the IC50 in assay [1] is 31 nM; in assay [2], more than 10000 nM.

On to `O=c1n(Cc2ccc(-c3nnc(C(F)F)o3)cn2)c2c(F)cccc2n1C1CCN(C2COC2)CC1` [Compound 77, 3-((5-(5-(difluoromethyl)-1,3,4-oxadiazole-2-yl)pyridine-2-yl)methyl)-4-fluoro-1-(1-(oxetan-3-yl)piperidine-4-yl)-1,3-dihydro-2H-benzo[d]imidazole-2-one], for which the concentration for half-maximal inhibition (IC50) in assay [1] is 35 nM; in assay [2] it was more than 10000 nM.

`O=c1n(Cc2ccc(-c3nnc(C(F)F)o3)cn2)c2ccccc2n1C1CCN(C2COC2)CC1` [Compound 78, 1-((5-(5-(difluoromethyl)-1,3,4-oxadiazole-2-yl)pyridine-2-yl)methyl)-3-(1-(oxetan-3-yl)piperidine-4-yl)-1,3-dihydro-2H-benzo[d]imidazole-2-one]: the values for the IC50 in assay [1] and in assay [2] were 79 nM and more than 10000 nM, respectively.

As to `CN1CCC(n2c(=O)n(Cc3ccc(-c4nnc(C(F)F)o4)cc3)c3cc(F)ccc32)CC1` [Compound 79, 3-(4-(5-(difluoromethyl)-1,3,4-oxadiazole-2-yl)benzyl)-5-fluoro-1-(1-methylpiperidine-4-yl)-1,3-dihydro-2H-benzo[d]imidazole-2-one], the IC50 in assay [1] is 66 nM; in assay [2], more than 10000 nM.

`O=c1n(Cc2ccc(-c3nnc(C(F)F)o3)cc2)c2cc(F)ccc2n1C1CCN(C2COC2)CC1` [Compound 80, 3-(4-(5-(difluoromethyl)-1,3,4-oxadiazole-2-yl)benzyl)-5-fluoro-1-(1-(oxetan-3-yl)piperidine-4-yl)-1,3-dihydro-2H-benzo[d]imidazole-2-one]: the IC50 was 61 nM in assay [1] and more than 10000 nM in assay [2].

As for `CN1CCC(n2c(=O)n(Cc3ccc(-c4nnc(C(F)F)o4)cn3)c3cc(Cl)c(Cl)cc32)CC1` [Compound 81, 5,6-dichloro-1-((5-(5-(difluoromethyl)-1,3,4-oxadiazole-2-yl)pyridine-2-yl)methyl)-3-(1-methylpiperidine-4-yl)-1,3-dihydro-2H-benzo[d]imidazole-2-one], the IC50 in assay [1] was 15 nM; in assay [2], more than 10000 nM.

On to `O=c1n(Cc2ccc(-c3nnc(C(F)F)o3)cn2)c2cc(Cl)c(Cl)cc2n1C1CCN(C2COC2)CC1` [Compound 82, 5,6-dichloro-1-((5-(5-(difluoromethyl)-1,3,4-oxadiazole-2-yl)pyridine-2-yl)methyl)-3-(1-(oxetan-3-yl)piperidine-4-yl)-1,3-dihydro-2H-benzo[d]imidazole-2-one], for which the 50% inhibitory concentration (IC50) in assay [1] was 23 nM; in assay [2], more than 10000 nM.

Turning to `CN1CCC(n2c(=O)n(Cc3ccc(-c4nnc(C(F)F)o4)cn3)c3cc(F)c(F)cc32)CC1` [Compound 83, 1-((5-(5-(difluoromethyl)-1,3,4-oxadiazole-2-yl)pyridine-2-yl)methyl)-5,6-difluoro-3-(1-methylpiperidine-4-yl)-1,3-dihydro-2H-benzo[d]imidazole-2-one], the figures for the IC50 in assay [1] and in assay [2] were 49 nM and more than 10000 nM, respectively.

With `O=c1n(Cc2ccc(-c3nnc(C(F)F)o3)cn2)c2cc(F)c(F)cc2n1C1CCN(C2COC2)CC1` [Compound 84, 1-((5-(5-(difluoromethyl)-1,3,4-oxadiazole-2-yl)pyridine-2-yl)methyl)-5,6-difluoro-3-(1-(oxetan-3-yl)piperidine-4-yl)-1,3-dihydro-2H-benzo[d]imidazole-2-one], the IC50 in assay [1] is 36 nM; in assay [2], more than 10000 nM.

On to `CN1CCC(n2c(=O)n(Cc3ccc(-c4nnc(C(F)F)o4)cc3)c3cc(Cl)c(Cl)cc32)CC1` [Compound 85, 5,6-dichloro-1-(4-(5-(difluoromethyl)-1,3,4-oxadiazole-2-yl)benzyl)-3-(1-methylpiperidine-4-yl)-1,3-dihydro-2H-benzo[d]imidazole-2-one], for which the values for the 50% inhibitory concentration (IC50) in assay [1] and in assay [2] were 31 nM and more than 10000 nM, respectively.

Turning to `O=c1n(Cc2ccc(-c3nnc(C(F)F)o3)cc2)c2cc(Cl)c(Cl)cc2n1C1CCN(C2COC2)CC1` [Compound 86, 5,6-dichloro-1-(4-(5-(difluoromethyl)-1,3,4-oxadiazole-2-yl)benzyl)-3-(1-(oxetan-3-yl)piperidine-4-yl)-1,3-dihydro-2H-benzo[d]imidazole-2-one], the results for the half-inhibitory concentration (IC50) in assay [1] and in assay [2] were 28 nM and more than 10000 nM, respectively.

`CN1CCC(n2c(=O)n(Cc3ccc(-c4nnc(C(F)F)o4)cc3F)c3cc(Cl)c(Cl)cc32)CC1` [Compound 87, 5,6-dichloro-1-(4-(5-(difluoromethyl)-1,3,4-oxadiazole-2-yl)-2-fluorobenzyl)-3-(1-methylpiperidine-4-yl)-1,3-dihydro-2H-benzo[d]imidazole-2-one]: the results for the half-inhibitory concentration (IC50) in assay [1] and in assay [2] were 63 nM and more than 10000 nM, respectively.

For the origin of these results see patent US20230092890A1, “1, 3, 4-Oxadiazole derivative compounds as histone deacetylase 6 inhibitor, and the pharmaceutical composition comprising the same” (Chong Kun Dang Pharmaceutical Corp., priority 2019, published 2023).
